Results from patent publication US7951815B2, “Substituted 1,4,8-triazaspiro [4,5]decan-2-one compounds” (Gruenenthal GmbH, priority 2004, dated 2011).

How the values were obtained:
NA transporter = assay: Inhibition of noradrenaline uptake in rat brain synaptosomes; type: biochemical; conditions: Table III
5-HT transporter = molecular target: T1, 5-HT transporter (Rattus norvegicus, UniProt P31652); assay: Inhibition of 5-HT uptake in rat brain synaptosomes; type: biochemical; conditions: Table III, rat, 1 μM; for inhibition at 1 µM: read-out: Uptake 5-HT, % inhibition
T1 construct: synaptosomes of rat brain areas are freshly isolated; from tissue; host or cells: rat brain synaptosomes (P2 fraction) from marrow and pons
T1 sequence (P31652 whole entry): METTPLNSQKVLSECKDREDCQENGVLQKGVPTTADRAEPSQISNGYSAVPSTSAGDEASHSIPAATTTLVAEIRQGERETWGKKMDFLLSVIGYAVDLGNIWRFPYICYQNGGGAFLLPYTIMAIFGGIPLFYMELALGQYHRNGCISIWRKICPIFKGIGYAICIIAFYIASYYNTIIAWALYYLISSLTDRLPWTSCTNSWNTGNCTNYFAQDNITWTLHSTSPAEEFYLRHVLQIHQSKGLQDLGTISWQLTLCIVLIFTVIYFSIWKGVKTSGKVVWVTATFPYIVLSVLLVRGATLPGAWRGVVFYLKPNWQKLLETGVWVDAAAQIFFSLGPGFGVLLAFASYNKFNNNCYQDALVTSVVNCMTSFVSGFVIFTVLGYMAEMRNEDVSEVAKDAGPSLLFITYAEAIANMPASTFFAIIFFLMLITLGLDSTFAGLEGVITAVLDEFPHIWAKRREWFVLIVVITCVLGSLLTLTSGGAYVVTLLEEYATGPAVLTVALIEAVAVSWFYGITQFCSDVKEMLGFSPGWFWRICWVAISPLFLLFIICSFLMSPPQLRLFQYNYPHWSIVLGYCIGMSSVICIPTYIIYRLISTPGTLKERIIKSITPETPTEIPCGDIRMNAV

| SMILES | Uptake (NA), rat, 10 μM, % inhibition (NA transporter) [%] | inhibition at 1 µM (5-HT transporter) [%] | Uptake 5-HT, rat, 1 μM, % inhibition (5-HT transporter) [%] |
| --- | --- | --- | --- |
| Cc1onc(-c2c(F)cccc2Cl)c1C(=O)N1CCC2(CC1)NC(=O)C(Cc1ccccc1)N2 (centres unmarked) [Example 115, 3-Benzyl-8-[3-(2-chloro-6-fluorophenyl)-5-methylisoxazole-4-carbonyl]-1,4,8-triazaspiro[4,5]decan-2-one] | 34 | 30 |  |
| CC(C)C1NC2(CCN(C(=O)c3c(F)cccc3Cl)CC2)NC1=O (centres unmarked) [Example 116, 8-(2-Chloro-6-fluorobenzoyl)-3-isopropyl-1,4,8-triazaspiro[4,5]decan-2-one] | 34 | 37 |  |
| CSCCC1NC2(CCN(C(=O)c3cccc(F)c3)CC2)N(C)C1=O (centres unmarked) [Example 121, 8-(3-Fluorobenzoyl)-1-methyl-3-(2-methylsulfanylethyl)-1,4,8-triazaspiro[4,5]decan-2-one] | 37 | 41 |  |
| O=C1NC2(CCN(C(=O)c3ccc4ccccc4c3)CC2)NC1Cc1ccccc1 (centres unmarked) [Example 122, 3-Benzyl-8-(naphthalin-2-carbonyl)-1,4,8-triazaspiro[4,5]decan-2-one] | 38 | 34 |  |
| CCCCN1C(=O)C(CCSC)NC12CCN(C(=O)c1ccc(C#N)cc1)CC2 (centres unmarked) [Example 125, 4-[1-Butyl-3-(2-methylsulfanylethyl)-2-oxo-1,4,8-triazaspiro[4,5]decan-8-carbonyl]benzonitrile] | 36 | 44 |  |
| Cc1ccc(C(=O)N2CCC3(CC2)NC(Cc2ccccc2)C(=O)N3C)cc1F (centres unmarked) [Example 148, 3-Benzyl-8-(3-fluoro-4-methylbenzoyl)-1-methyl-1,4,8-triazaspiro[4,5]decan-2-one] | 32 | 43 |  |
| C#CCN1C(=O)C(Cc2ccccc2)NC12CCN(C(=O)c1c(F)cccc1Cl)CC2 (centres unmarked) [Example 210, 3-Benzyl-8-(2-chloro-6-fluorobenzoyl)-1-prop-2-ynyl-1,4,8-triazaspiro[4,5]decan-2-one] | 31 | 51 |  |
| COc1cc(C(=O)N2CCC3(CC2)NCC(=O)N3Cc2ccccc2F)cc(OC)c1OC [Example 271, 1-(2-Fluorobenzyl)-8-(3,4,5-trimethoxybenzoyl)-1,4,8-triazaspiro[4,5]decan-2-one] | 31 | 44 |  |
| N#Cc1cccc(CN2C(=O)CNC23CCN(C(=O)c2cc(C(F)(F)F)cc(C(F)(F)F)c2)CC3)c1 [Example 273, 3-[8-(3,5-Bis-trifluoromethylbenzoyl)-2-oxo-1,4,8-triazaspiro[4,5]dec-1-ylmethyl]benzonitrile] | 38 | 51 |  |
| CCOC(=O)CN1C(=O)C(Cc2ccccc2)NC12CCN(C(=O)c1ccc(S(N)(=O)=O)cc1)CC2 (centres unmarked) [Example 276, Ethyl [3-benzyl-2-oxo-8-(4-sulfamoylbenzoyl)-1,4,8-triazaspiro[4,5]dec-1-yl]acetate] | 46 | 95 |  |
| CCOC(=O)C(C)(C)C(=O)N1CCC2(CC1)NC(CC(C)C)C(=O)N2CCCCOC(C)=O (centres unmarked) [Example 278, Ethyl 2-[1-(4-acetoxybutyl)-3-isobutyl-2-oxo-1,4,8-triazaspiro[4,5]dec-8-yl]-1,1-dimethyl-2-oxo-acetate] | 56 |  | 39 |
| C=CCN1C(=O)C(CCSC)NC12CCN(C(=O)C1CC1)CC2 (centres unmarked) [Example 281, 1-Allyl-8-cyclopropanecarbonyl-3-(2-methylsulfanylethyl)-1,4,8-triazaspiro[4,5]decan-2-one] | 30 | 56 |  |
| C=CCN1C(=O)C(CCSC)NC12CCN(C(=O)CCc1ccccc1)CC2 (centres unmarked) [Example 328, 1-Allyl-3-(2-methylsulfanylethyl)-8-(3-phenylpropionyl)-1,4,8-triazaspiro[4,5]decan-2-one] | 33 | 32 |  |
